Experiment in all cases: biochemical
The target in one experiment is T1, SHV-5 β-lactamase (Klebsiella pneumoniae, UniProt P0A3M1).
T1 construct: The β-lactamases were extracted by four cycles of freezing and thawing followed by centrifugation; endogenous in cells; host or cells: Escherichia coli cells containing SHV-5 (crude freeze-thaw extract)
Format: biochemical, Escherichia coli. How it is done: (§1) Isolation of β-lactamases. Crude β-lactamase extracts were prepared from 20 ml overnight cultures with shaking. Escherichia coli cells containing SHV-5 or CTXM-15 and Enterobacter cloacae cells containing P99 were further diluted 10-fold and grown to mid-log phase (OD at 600 nm, 0.5-0.8) in Mueller-Hinton II (MH-II) broth at 37° C. The cells were pelleted at 5000 g, washed and resuspended in 2 mL PBS pH 7.0. The β-lactamases were extracted by four cycles of freezing and thawing followed by centrifugation. β-lactamase activity in the extracts was measured with the chromogenic cephalosporin nitrocefin. The amount of protein in each β-lactamase preparation was determined by the bicinchoninic acid (BCA) assay.
(§2) β-lactamase Inhibition. To determine the level of inhibition of β-lactamase enzymes, compounds were diluted in PBS at pH 7.0 to yield concentrations between 100 and 0.005 μM in microtiter plates. An equal volume of diluted enzyme stock was added, and the plates were incubated at 37° C. for 10 min. Nitrocefin solution was then dispensed as substrate into each well at a final concentration of 100 μM, and the plates were immediately read with the kinetic program at 486 nm for 10 min on the SPECTRAMAX® Plus^384 (high-throughput microplate spectrophotometer; Molecular Devices Corp., Sunnyvale, Calif.). Maximum rates of metabolism were then compared to those in control wells (without inhibitors), and percentages of enzyme inhibition were calculated for each concentration of inhibitor. The concentration of inhibitor needed to reduce the initial rate of hydrolysis of substrate by 50% (IC50) was calculated as the residual activity of β-lactamase at 486 nm using the SoftMax Pro 5.0 software (Molecular Devices Corp.).

The target in another experiment is T2, CTXM-15 β-lactamase (Escherichia coli, UniProt Q9EXV5).
T2 construct: The β-lactamases were extracted by four cycles of freezing and thawing followed by centrifugation; endogenous in cells; host or cells: Escherichia coli cells containing CTXM-15 (crude freeze-thaw extract)
The class given is biochemical. The note with it: crude enzyme extract, 10 min preincubation at 37° C., nitrocefin 100 μM, PBS pH 7.0; read-out: CTXM-15 IC50 Range. The method, then:
as §1, §2

In another experiment the target is T3, P99 AmpC β-lactamase (Enterobacter cloacae, UniProt P05364).
T3 construct: The β-lactamases were extracted by four cycles of freezing and thawing followed by centrifugation; endogenous in cells; host or cells: Enterobacter cloacae cells containing P99 (crude freeze-thaw extract)
The class given is biochemical. The method, then: as §1, §2

[1] abbreviates: crude enzyme extract, 10 min preincubation at 37° C., nitrocefin 100 μM, PBS pH 7.0, read-out: SHV-5 IC50 Range.
The mark [2] stands for this setting: crude enzyme extract, 10 min preincubation at 37° C., nitrocefin 100 μM, PBS pH 7.0, read-out: P99 AmpC IC50 Range.

In general, IC50 refers to the concentration that gives 50% inhibition.

Where a name gives a salt, the structure may show the parent alone. Read-outs that look alike come from different tables or passages of the source.

T2 sequence (Q9EXV5 29-291): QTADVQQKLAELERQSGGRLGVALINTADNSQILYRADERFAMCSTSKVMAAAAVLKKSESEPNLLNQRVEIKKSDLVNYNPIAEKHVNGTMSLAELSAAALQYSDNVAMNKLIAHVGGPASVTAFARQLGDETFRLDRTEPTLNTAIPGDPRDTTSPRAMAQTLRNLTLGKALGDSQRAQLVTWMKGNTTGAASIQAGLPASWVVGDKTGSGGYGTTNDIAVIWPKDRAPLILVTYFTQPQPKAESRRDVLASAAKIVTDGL
T3 sequence (P05364 21-381): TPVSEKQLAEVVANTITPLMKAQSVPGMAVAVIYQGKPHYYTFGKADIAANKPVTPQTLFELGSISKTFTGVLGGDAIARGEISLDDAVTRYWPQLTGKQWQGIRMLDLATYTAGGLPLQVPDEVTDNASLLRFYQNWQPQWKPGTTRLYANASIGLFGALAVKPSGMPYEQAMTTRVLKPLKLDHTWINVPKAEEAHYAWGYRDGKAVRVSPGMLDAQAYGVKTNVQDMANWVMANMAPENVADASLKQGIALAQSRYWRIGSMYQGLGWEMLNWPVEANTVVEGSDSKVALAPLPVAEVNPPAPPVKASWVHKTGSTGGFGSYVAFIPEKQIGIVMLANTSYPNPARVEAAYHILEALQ
T1 sequence (P0A3M1 22-286): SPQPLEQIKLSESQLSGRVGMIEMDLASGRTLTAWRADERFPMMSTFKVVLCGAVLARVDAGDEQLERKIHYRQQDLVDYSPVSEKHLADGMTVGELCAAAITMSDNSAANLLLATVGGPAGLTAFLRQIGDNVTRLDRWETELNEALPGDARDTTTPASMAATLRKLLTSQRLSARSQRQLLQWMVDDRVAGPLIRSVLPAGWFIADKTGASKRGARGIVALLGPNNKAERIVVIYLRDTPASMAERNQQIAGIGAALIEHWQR

On to `O=C(Cc1cccc(Cl)c1)N[C@@H](Cc1cccc(C(=O)O)c1)B(O)O` [Example 3, (1R)-1-(3-Chlorophenylacetylamino)-2-(3-carboxyphenyl)ethyl-1-boronic acid], for which the IC50 on SHV-5 β-lactamase (setting [1]) was below 100 nM; on CTXM-15 β-lactamase it was below 100 nM; on P99 AmpC β-lactamase (setting [2]) it was 100 to 1000 nM.
Regarding `COc1ccc(OC)c(CC(=O)N[C@@H](Cc2cccc(C(=O)O)c2)B(O)O)c1` [Example 4, (1R)-1-(2,5-Dimethoxyphenylacetylamino)-2-(3-carboxyphenyl)ethyl-1-boronic acid], the values for the concentration for half-maximal inhibition (IC50) at SHV-5 β-lactamase (setting [1]) and on P99 AmpC β-lactamase (setting [2]) were above 1000 nM and 100 to 1000 nM, respectively.
Turning to `O=C(CC1CCCCC1)N[C@@H](Cc1cccc(C(=O)O)c1)B(O)O` [Example 5, (1R)-1-(Cyclohexylacetylamino)-2-(3-carboxyphenyl)ethyl-1-boronic acid], the concentration for half-maximal inhibition (IC50) on SHV-5 β-lactamase (setting [1]) and on P99 AmpC β-lactamase (setting [2]) was above 1000 nM throughout.
Turning to `O=C(Cc1cc(F)ccc1F)N[C@@H](Cc1cccc(C(=O)O)c1)B(O)O` [Example 6, (1R)-1-(2,5-Difluorophenylacetylamino)-2-(3-carboxyphenyl)ethyl-1-boronic acid], the concentration for half-maximal inhibition (IC50) was below 100 nM at SHV-5 β-lactamase (setting [1]) and 100 to 1000 nM at P99 AmpC β-lactamase (setting [2]).
For the compound `O=C(Cc1cccc(Br)c1)N[C@@H](Cc1cccc(C(=O)O)c1)B(O)O` [Example 7, (1R)-1-(3-Bromophenylacetylamino)-2-(3-carboxyphenyl)ethyl-1-boronic acid], the IC50 at SHV-5 β-lactamase (setting [1]) and at P99 AmpC β-lactamase (setting [2]) was 100 to 1000 nM throughout.
Consider `O=C(Cc1cccc(C(F)(F)F)c1)N[C@@H](Cc1cccc(C(=O)O)c1)B(O)O` [Example 8, (1R)-1-(3-Trifluoromethylphenylacetylamino)-2-(3-carboxyphenyl)ethyl-1-boronic acid], for which the IC50 at SHV-5 β-lactamase (setting [1]) is 100 to 1000 nM; at CTXM-15 β-lactamase, 100 to 1000 nM; on P99 AmpC β-lactamase (setting [2]), above 1000 nM.
In the case of `O=C(Cc1ccc(C(F)(F)F)cc1)N[C@@H](Cc1cccc(C(=O)O)c1)B(O)O` [Example 9, (1R)-1-(4-Trifluoromethylphenylacetylamino)-2-(3-carboxyphenyl)ethyl-1-boronic acid], the figures for the IC50 at SHV-5 β-lactamase (setting [1]), on CTXM-15 β-lactamase and at P99 AmpC β-lactamase (setting [2]) were below 100 nM, below 100 nM and 100 to 1000 nM, respectively.
On to `O=C(CCc1cccs1)N[C@@H](Cc1cccc(C(=O)O)c1)B(O)O` [Example 10, (1R)-1-(3-thiophene-2-yl-propionylamino)-2-(3-carboxyphenyl)ethyl-1-boronic acid], for which the IC50 on SHV-5 β-lactamase (setting [1]) was above 1000 nM; on CTXM-15 β-lactamase, 100 to 1000 nM; at P99 AmpC β-lactamase (setting [2]), above 1000 nM.
For `Cc1ccc(C(=O)O)cc1C[C@H](NC(=O)Cc1cccs1)B(O)O` [Example 13, (1R)-1-(2-thiophene-2-yl-acetylamino)-2-(5-carboxy-2-methylphenyl)ethyl-1-boronic acid], the values for the IC50 on SHV-5 β-lactamase (setting [1]), on CTXM-15 β-lactamase and on P99 AmpC β-lactamase (setting [2]) were below 100 nM, 100 to 1000 nM and above 1000 nM, respectively.
Take `Cn1c(CC(=O)N[C@@H](Cc2cccc(C(=O)O)c2)B(O)O)cc2ccccc21` [Example 14]: the concentration for half-maximal inhibition (IC50) at SHV-5 β-lactamase (setting [1]) was below 100 nM; on CTXM-15 β-lactamase it was 100 to 1000 nM; on P99 AmpC β-lactamase (setting [2]), 100 to 1000 nM.
Take `O=C(Cc1cccc2ccccc12)N[C@@H](Cc1cccc(C(=O)O)c1)B(O)O` [Example 15, (1R)-1-(2-naphthalen-1-yl-acetylamino)-2-(3-carboxyphenyl)ethyl-1-boronic acid]: the IC50 at SHV-5 β-lactamase (setting [1]) and on P99 AmpC β-lactamase (setting [2]) was above 1000 nM each time.
As to `O=C(Cc1ccc(Br)cc1)N[C@@H](Cc1cccc(C(=O)O)c1)B(O)O` [Example 16, (1R)-1-(4-Bromophenylacetylamino)-2-(3-carboxyphenyl)ethyl-1-boronic acid], the IC50 at SHV-5 β-lactamase (setting [1]) was 100 to 1000 nM; at P99 AmpC β-lactamase (setting [2]), above 1000 nM.
On to `O=C(Cc1cccc(C(=O)O)c1)N[C@@H](Cc1cccc(C(=O)O)c1)B(O)O` [Example 17, (1R)-1-(3-Carboxyphenylacetylamino)-2-(3-carboxyphenyl)ethyl-1-boronic acid], for which the values for the half-inhibitory concentration (IC50) at SHV-5 β-lactamase (setting [1]) and on P99 AmpC β-lactamase (setting [2]) were 100 to 1000 nM and above 1000 nM, respectively.
The corresponding values for `O=C(Cc1cccs1)N[C@@H](Cc1ccc(Cl)c(C(=O)O)c1)B(O)O` [Example 18, (1R)-1-(2-thiophene-2-yl-acetylamino)-2-(3-carboxy-4-chlorophenyl)ethyl-1-boronic acid] are below 100 nM and 100 to 1000 nM.
In the case of `O=C(Cc1ccc(Cl)cc1)N[C@@H](Cc1cccc(C(=O)O)c1)B(O)O` [Example 19, (1R)-1-(4-Chlorophenylacetylamino)-2-(3-carboxyphenyl)ethyl-1-boronic acid], the results for the IC50 at SHV-5 β-lactamase (setting [1]), at CTXM-15 β-lactamase and on P99 AmpC β-lactamase (setting [2]) were below 100 nM, below 100 nM and 100 to 1000 nM, respectively.
For `O=C(Cc1ccccc1Br)N[C@@H](Cc1cccc(C(=O)O)c1)B(O)O` [Example 20, (1R)-1-(2-Bromophenylacetylamino)-2-(3-carboxyphenyl)ethyl-1-boronic acid], the IC50 at SHV-5 β-lactamase (setting [1]) and on P99 AmpC β-lactamase (setting [2]) was 100 to 1000 nM each time.
Take `O=C(Cc1ccc2ccccc2c1)N[C@@H](Cc1cccc(C(=O)O)c1)B(O)O` [Example 23, (1R)-1-(2-naphthalen-2-yl-acetylamino)-2-(3-carboxyphenyl)ethyl-1-boronic acid]: the concentration for half-maximal inhibition (IC50) on SHV-5 β-lactamase (setting [1]), on CTXM-15 β-lactamase and at P99 AmpC β-lactamase (setting [2]) was below 100 nM in each case.
Regarding `O=C(Cc1ccccc1Cl)N[C@@H](Cc1cccc(C(=O)O)c1)B(O)O` [Example 24, (1R)-1-(2-Chlorophenylacetylamino)-2-(3-carboxyphenyl)ethyl-1-boronic acid], the IC50 was below 100 nM on SHV-5 β-lactamase (setting [1]), above 1000 nM on CTXM-15 β-lactamase and 100 to 1000 nM on P99 AmpC β-lactamase (setting [2]).
In the same order, the values of `COc1ccc(CC(=O)N[C@@H](Cc2cccc(C(=O)O)c2)B(O)O)cc1` [Example 25, (1R)-1-(4-Methoxyphenylacetylamino)-2-(3-carboxyphenyl)ethyl-1-boronic acid] are below 100 nM, below 100 nM and 100 to 1000 nM.
`COc1ccc(CC(=O)N[C@@H](Cc2cccc(C(=O)O)c2)B(O)O)c(Br)c1` [Example 26, (1R)-1-(2-Bromo-4-methoxyphenylacetylamino)-2-(3-carboxyphenyl)ethyl-1-boronic acid]: the IC50 at SHV-5 β-lactamase (setting [1]), at CTXM-15 β-lactamase and on P99 AmpC β-lactamase (setting [2]) was 100 to 1000 nM throughout.
Take `O=C(O)COc1cccc(CC(=O)N[C@@H](Cc2cccc(C(=O)O)c2)B(O)O)c1` [Example 27, (1R)-1-(2-(3-carboxymethoxy)phenylacetylamino)-2-(3-carboxyphenyl)ethyl-1-boronic acid]: the 50% inhibitory concentration (IC50) at SHV-5 β-lactamase (setting [1]) was below 100 nM; on CTXM-15 β-lactamase, 100 to 1000 nM; on P99 AmpC β-lactamase (setting [2]), 100 to 1000 nM.
In the case of `CN1CCC(Oc2cccc(CC(=O)NC(Cc3cccc(C(=O)O)c3)B(O)O)c2)C1` [Example 28, (1R)-1-(2-[3-(1-methyl-pyrrolidin-3-yloxy)-phenyl]-acetylamino)-2-(3-carboxyphenyl)ethyl-1-boronic acid], the figures for the IC50 at SHV-5 β-lactamase, at CTXM-15 β-lactamase and against P99 AmpC β-lactamase were 100 to 1000 nM, 100 to 1000 nM and below 100 nM, respectively.
For `NCCCOc1cccc(CC(=O)N[C@@H](Cc2cccc(C(=O)O)c2)B(O)O)c1` [Example 31, (1R)-1-{2-[3-(3-Amino-propyloxy)-phenyl]-acetylamino}-2-(3-carboxyphenyl)ethyl-1-boronic acid hydrochloride], the half-maximal inhibitory concentration (IC50) on SHV-5 β-lactamase (setting [1]), at CTXM-15 β-lactamase and on P99 AmpC β-lactamase (setting [2]) was 100 to 1000 nM in each case.

For the origin of these results see patent publication US20100317621A1, “BETA-LACTAMASE INHIBITORS” (priority 2007, published 2010).
